This is an account of results in patent publication US8518958B2, “Pyrido [2,3-D] pyrimidines and their use as kinase inhibitors” (Forma Therapeutics, Inc., priority 2006, dated 2013).

Where only a bound is given, the exact number is not on record here.

One assay deals with B-Raf delta1-415 (Homo sapiens, UniProt P15056). Briefly: B-Raf kinase inhibition (MAPH filter plate, 33P-ATP, MEK1 substrate). The note with it: read-out: Biochemical IC50 B-Raf. An outline of the steps: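 IC50 values come from dilution series (top 10 μM) measured by scintillation counting of 33P-labelled MEK1 retained on H3PO4-washed filters. Reactions ran 1 h at room temperature in pH 7.0 Mops buffer with MgCl2, MnCl2 and DTT, using 12.5 μCi/ml [γ-33P]ATP and B-Raf delta1-415 titrated to 50% turnover.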

The subject of the next assay is HT-29 tumor cells. Briefly: Anti-proliferative activity, SRB assay. The class given is cell-based, human. The note with it: Homo sapiens, HT-29, 72 h, 72 hours exposure, read-out: CELLULAR IC50 HT-29. The essentials:
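IC50 derived from % inhibition relative to DMSO controls, measured by sulforhodamine B binding (OD570) after TCA fixation. Cells (3,000-15,000 per well) were seeded a day ahead, then treated with graded compound concentrations for 72 hours.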
(In general: In SRB staining, fixed cells bind dye roughly in proportion to their protein.)

The target in assay [1] is C-Raf Raf-1 (truncated), active (Homo sapiens, UniProt P04049, Y340D/Y341D). Briefly: C-Raf kinase inhibition (MAPH assay / IMAP assay). The note with it: read-out: Biochemical IC50 C-Raf. The text has this:
We characterized the in vitro inhibitory activity against protein kinases of compounds of the present invention by determining their IC50 values (see Table 2).
Kinase: C-Raf Raf-1 (truncated), active (Upstate; cat. no. 14-352)
Reaction Temperature: room temperature
Assay Plate: 96 well U bottom plate (Greiner, 650161)
MultiScreen-PH Plate: 96 well MAPH Filter Plates (Millipore, MAPHNOB50)
Filter Washing Solution: 0.75% H3PO4
Scintillation Liquid: Supermix Liquid Scintillator (PerkinElmer, 1200-439)
Negative Control (C−): 100 mM EDTA, no inhibitor
Positive Control (C+): no inhibitor
Reaction Buffer (Final Concentration):
Final Assay Concentrations:
Kinase: Use kinase conc. yielding 10% ATP turnover as determined in titration experiment.
Adenosine 5′-[γ-^33P]triphosphate: 12.5 μCi/ml (Amersham Biosciences, BF1000)
Substrate: Myelin Basic Protein 57.8 μM (Invitrogen, 13228-010)
Pipetting Sequence: • 1) Add 10 μl 4-fold concentrated substrate+4-fold concentrated ATP in 3-fold concentrated reaction buffer to each well of assay plate • 2) Add 10 μl […] concentrated inhibitor in 4% DMSO in H2O to each well except to C− and C+ wells (starting point: final inhibitor concentration 10 μM; IC50 determination based on dilution series) • 3) Add 10 μl 4% DMSO in H2O to C− and C+ wells • 4) Add 10 μl 500 mM EDTA in H2O to C− wells • 5) Add 10 μl 50 μCi/ml adenosine 5′-[γ-^33P]triphosphate in H2O to each well • 6) Add 10 μl […] concentrated kinase in Reaction Buffer to each well • 7) Incubate 1 hr at room temperature • 8) Add 10 μl 50 mM EDTA in H2O to each well except to C− wells • 9) Prepare MAPH plates by adding 200 μl 0.75% H3PO4 to each well • 10) Exhaust 0.75% H3PO4 using Millipore vacuum station • 11) Add 60 μl 0.75% H3PO4 to each well of MAPH filter plate • 12) Transfer 30 μl sample per well from assay plate to corresponding well of MAPH filter plate • 13) Incubate 30 min at room temperature • 14) Wash each well of MAPH filter plates 3× with 200 μl 0.75% H3PO4 using Millipore vacuum station • 15) Add 20 μl scintillation liquid to each well of MAPH filter plate • 16) Seal MAPH filter plate • 17) Store MAPH filter plate 30 min in darkness • 18) Quantify radioactivity using scintillation counter (MicroBeta, Perkin-Elmer)
Reaction Volume: 8.0108 μl
IMAP Incubation Time: 60 min
Assay Plate: 384 well U bottom, PP, black, low volume (Corning, 3676)
Compound Plate: 384 well U bottom, PS (Falcon, 3995)
IMAP Binding Buffer A: Molecular Devices, R7282
IMAP Binding Buffer B: Molecular Devices, R7283
IMAP Binding Reagent: Molecular Devices, R7207
Negative Control (C−): no kinase, no inhibitor
Reation buffer: 20 mM Hepes, pH 7.5 • 1 mM DTT • 10 mM MnCl2 • 0.01% Brij35
Kinase: Kinase conc. yielding 50% substrate turnover as determined in titration experiment • c-Raf (Upstate 14-352)
Substrate: 5F1-SGQLIDSMANSFV-NH2 400 nM (jpt Peptide Technologies GmbH, Berlin, Germany)
IMAP Binding Solution: 75% IMAP Binding Buffer A • 25% IMAP Binding Buffer B • IMAP Binding Reagent 1:800
Pipetting Sequence: • 1) Add 6 μl 1.33-fold concentrated substrate+1.33-fold concentrated ATP in 1-fold concentrated reaction buffer to each well of assay plate • 2) Add 10.8 nl 740-fold concentrated inhibitor in 100% DMSO to each well except to C− and C+ wells using pintool (CyBio, Jena, Germany) (starting point: final inhibitor concentration 10 μM; IC50 determination based on dilution series) • 3) Add 10.8 nl 100% DMSO to C− and C+ wells using pintool • 4) Add 2 μl reaction buffer to C− wells • 5) Add 2 μl 4-fold concentrated kinase in reaction buffer to each well except C− wells • 6) Incubate according to reaction time at room temperature • 7) Add 15 μl IMAP binding solution to each well • 8) Incubate according to IMAP incubation time at room temperature • 9) Measure fluorescence polarization (Analyst GT, Molecular Devices)

Sequence of B-Raf delta1-415 (P15056 416-766): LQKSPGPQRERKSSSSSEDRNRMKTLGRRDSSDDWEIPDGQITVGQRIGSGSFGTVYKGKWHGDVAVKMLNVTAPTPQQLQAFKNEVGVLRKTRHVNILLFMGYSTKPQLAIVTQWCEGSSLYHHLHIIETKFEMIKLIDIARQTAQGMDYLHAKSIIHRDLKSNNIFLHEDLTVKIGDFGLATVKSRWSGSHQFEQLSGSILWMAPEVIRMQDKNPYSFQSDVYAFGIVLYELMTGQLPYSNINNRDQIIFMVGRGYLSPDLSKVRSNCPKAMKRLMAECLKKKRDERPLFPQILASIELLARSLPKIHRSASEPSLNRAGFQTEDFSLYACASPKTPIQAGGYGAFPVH
Sequence of C-Raf Raf-1 (truncated), active (P04049 306-648 Y340D/Y341D): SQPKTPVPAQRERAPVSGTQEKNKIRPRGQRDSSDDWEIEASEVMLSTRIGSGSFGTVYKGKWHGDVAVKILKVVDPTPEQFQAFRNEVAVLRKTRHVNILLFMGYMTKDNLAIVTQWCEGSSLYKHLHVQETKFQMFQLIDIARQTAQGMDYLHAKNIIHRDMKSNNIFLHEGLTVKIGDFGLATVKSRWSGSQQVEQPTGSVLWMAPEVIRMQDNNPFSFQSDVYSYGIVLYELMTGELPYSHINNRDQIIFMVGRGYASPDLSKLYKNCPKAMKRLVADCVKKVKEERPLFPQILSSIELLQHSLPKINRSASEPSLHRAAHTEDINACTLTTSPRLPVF

A word on the IC50: it is the concentration that inhibits the measured activity by half. As to `COn1c(=O)c(-c2cc(NC(=O)c3ccccc3)ccc2Cl)cc2cnc(Nc3ccc(N4CCN(C)CC4)cc3)nc21` [Compound 9, 6-(5-Benzoylamino-2-chloro-phenyl)-8-methoxy-2-(4-(4-methylpiperazino)-phenylamino)-pyrido[2,3-d]pyrimidin-7-one], the IC50 on B-Raf delta1-415 was < 500 nM; in the assay on HT-29 tumor cells, < 1000 nM; in assay [1], < 100 nM.
As for `COn1c(=O)c(-c2c(F)cccc2Cl)cc2cnc(Nc3ccc(N4CCN(C)CC4)cc3)nc21` [Compound 25, 6-(2-Chloro-6-fluorophenyl)-8-methoxy-2-(4-(4-methylpiperazino)-phenylamino)-pyrido[2,3-d]pyrimidin-7-one], the IC50 at B-Raf delta1-415 is < 100 nM; in the assay with HT-29 tumor cells, < 1000 nM; in assay [1] it was < 100 nM.
As to `COc1cccc(Nc2ncc3cc(-c4c(C)cccc4C)c(=O)n(OC)c3n2)c1` [Compound 69, 6-(2,6-Dimethylphenyl)-8-methoxy-2-(3-methoxyphenyl)-amino-pyrido[2,3-d]pyrimidin-7-one], the IC50 on B-Raf delta1-415 is < 500 nM; in the assay with HT-29 tumor cells, < 1000 nM; in assay [1], < 100 nM.
In the case of `COn1c(=O)c(-c2cc(NC(C)=O)ccc2Cl)cc2cnc(Nc3ccccc3)nc21` [Compound 59], the half-inhibitory concentration (IC50) on B-Raf delta1-415 was < 500 nM; in the assay with HT-29 tumor cells, < 10000 nM; in assay [1], < 100 nM.
Taken in the same sequence, the figures for `COc1ccccc1-c1cc2cnc(Nc3ccc(OCCN(C)C)cc3)nc2n(OC)c1=O` [Compound 50, 2-(4-(2-Dimethylaminoethoxy)-6-(2-methoxyphenyl)-phenylamino)-8-methoxy-pyrido[2,3-d]pyrimidin-7-one] were > 1000 nM, < 10000 nM and < 1000 nM.
Turning to `COn1c(=O)c(-c2cc(N)ccc2Cl)cc2cnc(Nc3ccccc3)nc21` [Compound 23, 6-(5-Amino-2-chlorophenyl)-8-methoxy-2-phenylamino-pyrido[2,3-d]pyrimidin-7-one], the IC50 is < 500 nM at B-Raf delta1-415, < 10000 nM with HT-29 tumor cells and < 100 nM in assay [1].
With `NCCCCOn1c(=O)c(-c2c(Cl)cccc2Cl)cc2cnc(Nc3cccc(S(N)(=O)=O)c3)nc21` [Compound 40, 8-(4-Aminobutoxy)-6-(2,6-dichlorophenyl)-2-(3-sulfamoylphenylamino)-pyrido[2,3-d]pyrimidin-7-one], the IC50 at B-Raf delta1-415 is < 100 nM; in the assay on HT-29 tumor cells, > 10000 nM; in assay [1], < 100 nM.
Regarding `COn1c(=O)c(-c2c(F)cccc2Cl)cc2cnc(Nc3ccc(OCCN(C)C)cc3)nc21` [Compound 8, 6-(2-Chloro-6-fluorophenyl)-8-methoxy-2-(4-(2-dimethylaminoethoxy)-phenylamino)-pyrido[2,3-d]pyrimidin-7-one], the IC50 on B-Raf delta1-415 was < 100 nM; in the assay with HT-29 tumor cells it was < 1000 nM; in assay [1] it was < 100 nM.
Take `COn1c(=O)c(-c2c(Cl)cccc2Cl)cc2cnc(Nc3ccncc3)nc21` [Compound 13, 6-(2,6-Dichlorophenyl)-8-methoxy-2-(pyrid-4-ylamino)-pyrido[2,3-d]pyrimidin-7-one]: the IC50 on B-Raf delta1-415 was < 100 nM; with HT-29 tumor cells, < 1000 nM; in assay [1], < 100 nM.
Consider `O=c1c(-c2ccccc2Cl)cc2cnc(Nc3ccccc3)nc2n1OCC1CC1` [Compound 49, 6-(2-Chlorophenyl)-8-cyclopropylmethoxy-2-phenylamino-pyrido[2,3-d]pyrimidin-7-one], for which the IC50 was > 1000 nM at B-Raf delta1-415, < 10000 nM in the assay on HT-29 tumor cells and < 100 nM in assay [1].
The like results for `COc1ccc(OC)c(-c2cc3cnc(Nc4cccc(CO)c4)nc3n(OC)c2=O)c1` [Compound 44, 6-(2,5-Dimethoxyphenyl)-2-(3-hydroxymethylphenylamino)-8-methoxy-pyrido[2,3-d]pyrimidin-7-one] were, in that order, < 5000 nM, > 10000 nM and < 100 nM.
Turning to `CN1CCN(c2ccc(Nc3ncc4cc(-c5c(F)cccc5Cl)c(=O)n(OCC5CC5)c4n3)cc2)CC1` [Compound 52, 6-(2-Chloro-6-fluorophenyl)-8-cyclopropylmethoxy-2-(4-(4-methylpiperazino)-phenylamino)-pyrido[2,3-d]pyrimidin-7-one], the IC50 at B-Raf delta1-415 is < 100 nM; with HT-29 tumor cells, < 1000 nM; in assay [1], < 100 nM.
As to `COn1c(=O)c(-c2c(C)cccc2C)cc2cnc(Nc3cccc(S(N)(=O)=O)c3)nc21` [Compound 72, 6-(2,6-Dimethylphenyl)-8-methoxy-2-(3-sulfamoylphenylamino)-pyrido[2,3-d]pyrimidin-7-one], the IC50 in the assay with HT-29 tumor cells is < 1000 nM; in assay [1], < 100 nM.
On to `COCCOn1c(=O)c(-c2c(Cl)cccc2Cl)cc2cnc(Nc3cc(C(=O)NCCN4CCCC4)n(C)c3)nc21` [Compound 99, 6-(2,6-Dichlorophenyl)-8-(2-methoxyethyl)oxy-2-(5-(2-pyrrolidinoethyl)aminocarbonyl-1-methyl-pyrrol-3-yl)-amino-pyrido[2,3-d]pyrimidin-7-one], for which the values for the IC50 on B-Raf delta1-415 and in the assay with HT-29 tumor cells were < 500 nM and < 1000 nM, respectively.
Take `COn1c(=O)c(-c2c(Cl)cccc2Cl)cc2cnc(Nc3cccc(Cn4cncn4)c3)nc21` [Compound 134, 6-(2,6-Dichlorophenyl)-8-methoxy-2-(3-(1,2,4-triazol-1-ylmethyl)phenyl)-amino-pyrido[2,3-d]pyrimidin-7-one]: the figures for the IC50 on B-Raf delta1-415 and in the assay with HT-29 tumor cells were < 100 nM and < 1000 nM, respectively.
Consider `COn1c(=O)c(-c2c(F)cccc2Cl)cc2cnc(Nc3ccc(C4CCNCC4)cc3)nc21` [Compound 222, 6-(2-Chloro-6-fluorophenyl)-8-methoxy-2-(4-(piperidin-4-yl)phenyl)-amino-pyrido[2,3-d]pyrimidin-7-one], for which the IC50 at B-Raf delta1-415 is < 100 nM; with HT-29 tumor cells, < 1000 nM.
Taken in the same sequence, the figures for `COn1c(=O)c(-c2c(F)cccc2Cl)cc2cnc(Nc3ccc(N4CCOCC4)cc3)nc21` [Compound 136] were < 100 nM and < 1000 nM.
With `COCCOn1c(=O)c(-c2c(Cl)cccc2Cl)cc2cnc(Nc3ccc(N4CCN(C(C)C)CC4)cc3)nc21` [Compound 205, 6-(2,6-Dichlorophenyl)-8-(2-methoxyethyl)oxy-2-(4-(4-(1-methylethyl)piperazino)phenyl)-amino-pyrido[2,3-d]pyrimidin-7-one], the IC50 at B-Raf delta1-415 was < 100 nM; in the assay with HT-29 tumor cells, < 1000 nM.
